Measurements as given in patent publication US6646008B1, “Treatment of disease states which result from neoplastic cell proliferation using PPAR-γ activators and compositions useful therefor” (The Salk Institute for Biological Studies, priority 1996, dated 2003).

Tests used:
HL-60 cells [1] = assay: Growth of HL-60 cells in the presence of ligands; format: cell-based; conditions: 100 nM 9-cis RA, 100 nM LG268, 3 μM PG-J2, cell numbers after 3, 5 or 7 days
Method: (§1) HL-60 cells were plated at a density of 2×10^5 cells/ml and were treated with:
(§2) 100 nM 9-cis retinoic acid (9-cis RA; which is both RAR and RXR active),
(§3) 100 nM LG268 (which is RXR selective),
(§4) 3 μM prostaglandin J2 (PG-J2; which is PPARγ active), or
(§5) a combination of 100 nM of LG268 and 3 μM of PG-J2.
Cell numbers were determined after 3, 5 or 7 days of culture, as illustrated in FIG. 1.

HL-60 cells [2] = assay: Cell cycle analysis of HL-60 cells by flow cytometry (DNA content); format: cell-based; conditions: for Cell Cycle Phase, % G1 / Cell Cycle Phase, % G2 / Cell Cycle Phase, % S: day 3, 100 nM 9-cis RA, 100 nM LG268, 3 μM PG-J2
Method: as §1, §2, §3, §4, §5
Cell cycle analysis was carried out on day 3 using standard DNA content determination by flow cytometry.

THP-1 leukemia cells = assay: CD14 differentiation antigen flow cytometry in THP-1 cells; format: cell-based; conditions: 5 days, 100 nM LG268, 3 μM 15-deoxy-Δ12,14-prostaglandin-J2
Method: (§6) HL-60 and THP-1 leukemia cells were seeded at a ensity of 2×10^5 cells/ml and cultured in RPMI containing 10% charcoal-stripped fetal calf serum. Cells were treated with either vehicle alone, or 10 nM AM580, 100 nM LG268, or 3 μM 15-deoxy-Δ12,14-prostaglandin-J2. After 5 days, cells were incubated with monoclonal antibody to the monocyte-specific differentiation antigen CD14, and analyzed by flow cytometry using a Becton Dickinson FACScan.

HL-60 leukemia cells = assay: CD14 differentiation antigen flow cytometry in HL-60 cells; format: cell-based; conditions: 5 days, 10 nM AM580, 100 nM LG268, 3 μM 15-deoxy-Δ12,14-prostaglandin-J2
Method: as §6

LS857 cells = assay: Differentiation of primary liposarcoma cell strain LS857 (lipid accumulation, morphology); format: cell-based, human; conditions: 7 days
NIH-vector cells = assay: Adipocyte differentiation (oil red O lipid staining) of NIH-vector cells; format: cell-based; conditions: for % lipid containing cells: NIH (vector) cells, treated 7 days at confluence, 1 μM pioglitazone, 50 nM LG268, or 5 μM thiazolidinedione and 50 nM LG268, oil red O after four more days, range over three experiments
Method: Simultaneous exposure of competent cells to both PPARγ and RXR-specific ligand was investigated to determine if such combination might provide a stronger adipogenic signal than a PPARγ ligand alone. […] It has previously been shown that wild-type NIH-3T3 cells express RXRα but not PPARγ. NIH-vector and NIH-PPARγ cells were cultured as described in the Examples. […] After an additional four days of culture, cells were fixed and stained with oil red O. Data are presented in Table 1 as the range of morphologically recognizable differentiation observed for each line over three separate experiments.

NIH-PPARγ cells = assay: Adipocyte differentiation (oil red O lipid staining) of NIH-3T3 fibroblasts expressing PPARγ from a retroviral vector; format: cell-based; conditions: for % lipid containing cells: NIH-PPARγ cells, treated 7 days at confluence, 1 μM pioglitazone, 50 nM LG268, or 5 μM thiazolidinedione and 50 nM LG268, oil red O after four more days, range over three experiments
Method: Simultaneous exposure of competent cells to both PPARγ and RXR-specific ligand was investigated to determine if such combination might provide a stronger adipogenic signal than a PPARγ ligand alone. […] NIH-vector and NIH-PPARγ cells were cultured as described in the Examples.

LS175 cells = assay: Differentiation of primary liposarcoma cell strain LS175; format: cell-based, human; conditions: 10 μM pioglitazone, 7 days
Method: Liposarcomas have presumably acquired one or more genetic defects that interfere with the course of normal adipocyte development. The observation that PPARγ is expressed consistently in these tumors raised the possibility that the malignant cells might be forced to complete the differentiation program by maximally iactivating the PPARγ pathway. To address this possibility, primary cells isolated from three human liposarcomas were cultured in vitro. Primary cell strains LS857 and LS175 were derived from well differentiated liposarcomas and LS707 was derived from an intermediate grade myxoid/round cell liposarcoma (see Table 5). High grade pleomorphic liposarcoma cells could not be expanded to sufficient numbers to permit studies of differentiation. A primary leiomyosarcoma cell line LM203 was cultured as a control. To confirm that these cultures consisted of malignant tumor-derived cells, cytogenetic analysis was performed.
When cultured in the presence of fetal bovine serum and insulin, conditions permissive for adipocyte differentiation, all three cell lines maintain a fibroblastic morphology. LS175 cells contained small amounts of stainable lipid under these conditions. […] The degree of morphologically recognizable differentiation varied from 40% in the LS857 cells to 75% in the LS175 cells. […]

Compound	effect on cell growth (HL-60 cells [1])	effect on cell cycle progression (HL-60 cells [2]; day 3)	Cell Cycle Phase, % G1 (HL-60 cells [2]) [%]	Cell Cycle Phase, % G2 (HL-60 cells [2]) [%]	Cell Cycle Phase, % S (HL-60 cells [2]) [%]	median fluorescence (CD14) (THP-1 leukemia cells)	median fluorescence (CD14) (HL-60 leukemia cells)	adipocyte differentiation (LS857 cells; 50 nM LG268, 10 μM pioglitazone)	lipid accumulation, oil red O, macroscopic view (LS857 cells; 5 μM thiazolidinedione (BRL 49653 or pioglitazone), 50 nM LG268, stained after four more days)	% lipid containing cells (NIH-vector cells) [%]	adipogenic effect (NIH-vector cells; NIH-vector cells)	% lipid containing cells (NIH-PPARγ cells)	adipocyte differentiation (NIH-PPARγ cells; confluent NIH-PPARγ cells, 7 days, 50 nM LG268 and/or 1 μM pioglitazone)	degree of morphologically recognizable differentiation (LS175 cells) [%]	degree of morphologically recognizable differentiation (LS857 cells; 10 μM pioglitazone) [%]
CC1=C(/C=C/C(C)=C\C=C\C(C)=C\C(=O)O)C(C)(C)CCC1 [9-cis RA, 9-cis retinoic acid]	inhibit cell growth	inhibits cell cycle progression	70.5	10.2	19.2										
Cc1cc2c(cc1C1(c3ccc(C(=O)O)cn3)CC1)C(C)(C)CCC2(C)C [LG268, 6-[1-(3,5,5,8,8-pentamethyl-5,6,7,8-tetrahydronaphthalen-2-yl)cyclopropyl]nicotinic acid]	only a marginal ability to promote cell differentiation		54.5	14.4	31.1	18	138	significant degree of adipocyte differentiation	significant lipid accumulation	0	no effect	50-65%	significant stimulation of adipocyte differentiation		
CCc1ccc(CCOc2ccc(CC3SC(=O)NC3=O)cc2)nc1 (stereo not shown) [pioglitazone]										0		60-70%		75	40
AM580							26								
